Like-named read-outs stand apart in the source and are kept apart here. Marks after values point to notes of the source that are not given here.
Assays:
human sebocytes = experiment: Inhibition of sebocyte lipogenesis (14C-acetate label remaining in sebocytes); assay type: cell-based; conditions: for IC50: read-out: IC 50 (concentration which provides a 50% sebum suppression relative to the control)
[1] = Light absorbency (color) at 340-500 nm, Spectramax 340 spectrophotometer; assay type: physicochemical; conditions: from absorbency values at 340-500 nm
[2] = Homo sapiens, 20 hour incubation, 96 well plate
[3] = 20 hour incubation, 96 well plate

CC(C)CCCC(C)CCCC(C)CCO (centres unmarked) [Compound 6, 3,7,11-trimethyl 1-dodecanol]
IC50 (human sebocytes; [2]): > 100 µM

CC(C)CCCC(C)CCCC(C)CCOCCC(=O)O (centres unmarked) [Compound 7, 3,7,11-trimethyl 1-dodecanol carboxyethylate]
IC50 (human sebocytes; [2]): 10 µM | activity as sebum suppressant relative to the branched alcohol from which it is derived (human sebocytes; ratio of IC50 values of Table 3): at least 10 times

O=S1(=O)OC(c2ccc(O)cc2)(c2ccc(O)cc2)c2ccccc21 [Phenol Red]
activity at 100 µM (human sebocytes; Homo sapiens, 20 h, read-out: radioactive label remaining in the sebocytes, % of Control): 46.3%

C13 isoalcohol carboxyethylate (TDCE) [Compound 1]
color compared with TDCM [1]: lighter in color | radioactive label remaining in the sebocytes, % of Control (human sebocytes; 1 µM): 48.7* % | radioactive label remaining in the sebocytes, % of Control (human sebocytes; 10 µM): 34.6* % | radioactive label remaining in the sebocytes, % of Control (human sebocytes; 100 µM): 11.9* % | IC50 (human sebocytes; [3]): 5 µM

C13 isoalcohol glycerol [Compound 5]
IC50 (human sebocytes; [3]): > 100 µM

C13 isoalcohol propionitrile [Compound 2]
IC50 (human sebocytes; [3]): > 100 µM

Iso-tridecyl carboxymethylate [TDCM]
radioactive label remaining in the sebocytes, % of Control (human sebocytes; 1 μM test agent, 20 hour incubation, 96 well plate, lower = greater inhibition of lipogenesis): 84.8* % | radioactive label remaining in the sebocytes, % of Control (human sebocytes; 10 μM test agent, 20 hour incubation, 96 well plate, lower = greater inhibition of lipogenesis): 43.4* % | radioactive label remaining in the sebocytes, % of Control (human sebocytes; 100 μM test agent, 20 hour incubation, 96 well plate, lower = greater inhibition of lipogenesis): 22.8* %

Reference: patent US20040013631A1, “Skin care cosmetic compositions containing carboxyalkylates of branched alcohols and/or alkoxylates thereof” (Unilever Home & Personal Care USA, Division of Conopco, priority 2002, published 2004)
